These are literature values, as cited in US11925179B2, “Glyphosate formulations containing amidoalkylamine surfactants” (Monsanto Technology LLC, priority 2008, dated 2024).

For this data set the following is noted: glyphosate in its acid form, 25° C.

Take `O=C(O)CNCP(=O)(O)O` [glyphosate, N-phosphonomethylglycine]: the solubility in water is given as 1.16 % by weight.
